# “Also recorded” adds a separate entry of the source.
# B1: recombinant IL-2: Recombinant mouse IL-2 (R&D Systems), used at 10 ng/ml (protein, UniProt P04351 21-169, looked up)
# Interleukin-2: APTSSSTSSSTAEAQQQQQQQQQQQQHLEQLLMDLQELLSRMENYRNLKLPRMLTFKFYLPKQATELKDLQCLEDELGPLRHVLDLTQSKSFQLEDAENFISNIRVTVVKLKGSDNTFECQFDDESATVVDFLRRWIAFCQSIISTSPQ
# Columns and labels:
# TDLN cells = format: in vivo, mouse
# Tregs [1] = assay: Treg activation culture and readout assays (agent in pre-activation step); format: cell-based, mouse; settings: for IDO-induced Treg activation (suppressor activity of re-sorted Tregs in readout assays): agent added to activation (pre-activation) cultures with TDLN pDCs + OT-I + feeder cells, 1MT 200 uM, anti-CTLA4 10 ug/ml, tryptophan 250 uM, readout A1 T cells + CBA DCs
# Protocol: Treg activation culture and readout assays. […] The pDC fraction (CD11c^+B220^+) was sorted from 2-6 pooled TDLNs (day 7-11 of tumor growth) and collected in medium on ice. […] […] […] After two days, cultures were harvested, stained for CD4, and Tregs isolated by sorting for CD4^+ cells. […] Re-sorted Tregs were added to readout assays containing 1×10^5 A1 cells, 2×10^3 CD11c^+ DCs from CBA spleen (or 5×10^4 B cells, as CD11c^NEG B220^+ spleen cells), plus H-Y peptide. For assays performed in transwells, Multiwell 96-well insert plates (1 uM pore size, BD-Falcon) were used and the number of cells in all groups was doubled.
# Feeder layer. […] As a feeder layer we added T cell-depleted spleen cells (1×10^5 sorted CD4^NEGCD8^NEG cells) to all assays.
# Resting Tregs, from spleens of mice without tumors, were co-cultured with IDO^+ DCs from TDLNs, then re-sorted and transferred to readout assays (A1 T cells+CBA DCs) to measure suppression. […] Co-cultures also contained a feeder layer of T-depleted spleen cells as described in the Methods section. After 30-48 hours, co-cultures were harvested and the Tregs recovered by sorting for CD4^+ cells. Since the Tregs were the only CD4^+ cells in the co-cultures, they could be unambiguously recovered.
# CHOP = assay: Intracellular staining for CHOP in Treg activation cultures; format: cell-based, mouse; settings: 2 days
# Protocol: (§1) FACS staining. Antibodies were from BD-Pharmingen unless otherwise noted. Anti-mouse CD25-APC conjugate (clone PC61, cat. #17-0251-81) was from eBioscience; this conjugate gave brighter signal and better separation of CD25^+ cells than other conjugates from other suppliers. For intracellular staining of CHOP, live cells were first blocked for 10 minutes with mouse Fc Block (BD Pharmingen) in 10% fetal calf serum medium, stained with anti-CD4-FITC for 30 minutes on ice, washed with PBS, then fixed and permeablized for 20 minutes in 250 μl Cytoperm/Cytofix solution (BD Pharmingen) on ice. All subsequent staining and wash steps were in BD Permwash solution. Fixed cells were stained with 1:100 dilution of monoclonal anti-gadd153/CHOP (sc-7351, Santa Cruz Biotechnology), washed, and stained with secondary monoclonal rat anti-mouse-IgG1-PE (#550083, BD Biosciences). […] For Foxp3 staining, anti-Foxp3-PE antibody (clone FJK-16s) was obtained from eBioscience and used per the manufacturer's protocol. For Foxp3 staining, assays omitted A1 bystander cells and Tregs were identified by CD4 expression, as for CHOP staining. Biotinylated anti-PD-L1 (clone MIH5) and anti-PD-L2 (clone TY25) were purchased from eBioscience.
# GCN2-kinase is required for Treg activation. […] Treg activation cultures were set up as in FIG. 2, and CHOP expression measured by intracellular staining after two days.
# Foxp3 = Foxp3 upregulation in naive CD4+CD25NEG A1 T cells in cocultures with IDO+ pDCs; format: cell-based, mouse
# Protocol: FACS staining. Antibodies were from BD-Pharmingen unless otherwise noted. […] For intracellular staining of CHOP, live cells were first blocked for 10 minutes with mouse Fc Block (BD Pharmingen) in 10% fetal calf serum medium, stained with anti-CD4-FITC for 30 minutes on ice, washed with PBS, then fixed and permeablized for 20 minutes in 250 μl Cytoperm/Cytofix solution (BD Pharmingen) on ice. All subsequent staining and wash steps were in BD Permwash solution. […] For Foxp3 staining, assays omitted A1 bystander cells and Tregs were identified by CD4 expression, as for CHOP staining.
# Therefore, whether IDO would induce naive CD4+ cells to differentiate into Foxp3^+ cells in this system was studied. Cocultures were set up as shown for FIG. 6A, comprising IDO^+ pDCs, OT-I, feeder cells, mature Tregs (Thy1.1 congenic), plus a population of CD4^+CD25^NEG T cells (naive male-specific A1 T cells isolated from female mice). CBA splenic DCs were also added to serve as APCs for the A1 cells. After two days, co-cultures were harvested and stained for intracellular Foxp3.
# Tregs [2] = assay: DC adoptive transfer; format: in vivo, mouse; settings: recipient mice treated with sustained-release 1MT pellets 5 mg/day; Tregs sorted after 4 days
# From the text: DC adoptive transfer. […] Briefly, total CD11c^+ DCs were sorted from TDLNs, pulsed with […] peptide (SEQ ID NO:1), and 5×10^4 DCs injected subcutaneously into each anteriomedial thigh of recipient mice. Recipients had been pre-loaded one day before DC injection with 5×10^6 sorted CD8^+ OT-I cells. After four days, the inguinal LNs draining the site of DC injection were removed, and CD4^+CD25^+ Tregs were isolated by cell sorting.
# IDO^+ DCs from TDLNs activate Tregs in vivo. To test the hypothesis that Treg activation in TDLNs might be related to the presence of IDO-expressing DCs, the DC population (CD11c^+ cells) from TDLNs was isolated and transferred to new, non-tumor-bearing hosts. […] Four days after DC transfer, host Tregs were sorted from LNs draining the site of DC injection and tested for suppressor activity. […] Thus, the DC fraction from TDLNs, by itself, was sufficient to activate resting Tregs in new hosts, in an IDO-dependent fashion.
# OT-I cells in TDLNs = assay: CFSE labeling and T cell adoptive transfer; format: in vivo, mouse; settings: B16-OVA tumors, 4 days after transfer
# From the text: CFSE labeling and T cell adoptive transfer. Mice were implanted with B16-OVA tumors. […] After four days, the TDLNs and contralateral LNs (CLN) were harvested and stained for 1B11 (BD-Pharmingen) vs. CD8.
# PD-L1 and PD-L2 = PD-L1 and PD-L2 staining of DCs in readout assays; format: cell-based, mouse; settings: Tregs from pre-activation cultures in which IDO was blocked with 1MT
# Protocol: as §1, with “For Foxp3 staining, assays omitted A1 bystander cells and Tregs were identified by CD4 expression, as for CHOP staining. Biotinylated anti-PD-L1 (clone MIH5) and anti-PD-L2 (clone TY25) were purchased from eBioscience.” left out
# After 24 hours, cultures were harvested and stained for PD-L1 and PD-L2 relative to CD11c. […] In FIG. 3D, IDO-activated Tregs (1×10^4/well) and anti-CD3/IL-2-activated Tregs (2×10^4/well) were prepared as in the previous panel, and added to readout assays with or without recombinant IL-2, anti-IL-10 plus anti-TGF-β blocking antibodies (100 μg/ml each), or PD-1/PD-L blocking antibodies. […]
# Tregs [3] = assay: Mixed co-cultures with bystander A1 cells; format: cell-based, mouse
# Protocol: A1 T cells and CBA DCs were added directly to the Treg pre-activation assay at the start of culture. Thus, the combined cultures comprised IDO^+ pDCs, OT-I T cells, Tregs, A1 T cells, CBA splenic DCs, and feeder layer. […] However, the mixed co-cultures addressed the specific question of whether IDO and activated Tregs could produce effective levels of suppression rapidly enough that they could suppress the bystander A1 cells before they could begin dividing. […] In each case, parallel titrations were performed with or without the addition of anti-CD3 mAb. […] In the absence of Tregs there was substantial proliferation of T cells in co-cultures, despite the presence of IDO^+ pDCs. However, the addition of fewer than 5000 Tregs was sufficient to suppress proliferation of all cells in culture. […] Thus, the results of the mixed co-culture model were similar to those using the separate pre-activation and re-sorting step.
# In FIG. 12A, mixed co-cultures were established as in FIG. 11, comprising Treg activation cultures (IDO^+ pDCs, OT-I cells, Tregs, and feeder layer) plus the direct addition of CFSE-labeled CD4^+ sorted A1 T cells plus CBA DCs plus HY peptide. After 2-3 days the mixed co-cultures were harvested and stained for CD25 versus CFSE. […] In FIG. 12B, IDO-activated Tregs were sorted as described in FIG. 2 and added to readout assays of A1 cells plus CBA DCs plus HY peptide. […]
# Tregs in TDLNs = settings: sustained-release 1MT throughout tumor growth
# Protocol: Recombinant mouse IL-2 (R&D Systems) was used at 10 ng/ml.
# Tregs from day seven TDLNs were sorted and added to readout assays (A1 T cells plus CBA DCs), with and without PD-1/PD-L blocking antibodies. […] Tregs from day seven tumors were tested in readout assays as above, with added isotype, PD-1/PD-L blocking antibodies, or a combination of anti-PD-1/PD-L plus IL-2 plus anti-IL-10/TGF-β antibodies.
# Lewis Lung carcinoma = settings: Friberg et al., 2002; cited from earlier work
# P815 = settings: Uyttenhove et al., 2003; concomitant administration of 1-MT; cited from earlier work
# IDO-activated Tregs = assay: Readout assays: suppression of A1 T cell proliferation by IDO-activated Tregs (agent in readout assay); format: cell-based, mouse; settings: agent added to readout assay (A1 T cells + wild-type CBA DCs); antibodies 50 ug/ml each
# Protocol: Treg activation culture and readout assays. […] The pDC fraction (CD11c^+B220^+) was sorted from 2-6 pooled TDLNs (day 7-11 of tumor growth) and collected in medium on ice. […] All cultures received a feeder layer of 1×10^5 T cell-depleted spleen cells (CD4^NEGCD8^NEG), as described below. […] After two days, cultures were harvested, stained for CD4, and Tregs isolated by sorting for CD4^+ cells. […] Re-sorted Tregs were added to readout assays containing 1×10^5 A1 cells, 2×10^3 CD11c^+ DCs from CBA spleen (or 5×10^4 B cells, as CD11c^NEG B220^+ spleen cells), plus H-Y peptide. For assays performed in transwells, Multiwell 96-well insert plates (1 uM pore size, BD-Falcon) were used and the number of cells in all groups was doubled.
# anti-CD3-activated Tregs = assay: Readout assays: suppression by anti-CD3/IL-2-activated Tregs; format: cell-based, mouse; settings: agent added to readout assay
# Protocol: Treg activation culture and readout assays. […] The pDC fraction (CD11c^+B220^+) was sorted from 2-6 pooled TDLNs (day 7-11 of tumor growth) and collected in medium on ice. Pre-activation cultures contained 2×10^3 pDCs, 1×10^5 sorted CD8^+ OT-I cells, 100 nM […] peptide (SEQ ID NO:1), and 5×10^3 sorted CD4^+CD25^+ Tregs from spleens of B6 mice without tumors. All cultures received a feeder layer of 1×10^5 T cell-depleted spleen cells (CD4^NEGCD8^NEG), as described below. […] After two days, cultures were harvested, stained for CD4, and Tregs isolated by sorting for CD4^+ cells. […] Re-sorted Tregs were added to readout assays containing 1×10^5 A1 cells, 2×10^3 CD11c^+ DCs from CBA spleen (or 5×10^4 B cells, as CD11c^NEG B220^+ spleen cells), plus H-Y peptide. For assays performed in transwells, Multiwell 96-well insert plates (1 uM pore size, BD-Falcon) were used and the number of cells in all groups was doubled.
# After 24 hours, cultures were harvested and stained for PD-L1 and PD-L2 relative to CD11c. […] In FIG. 3D, IDO-activated Tregs (1×10^4/well) and anti-CD3/IL-2-activated Tregs (2×10^4/well) were prepared as in the previous panel, and added to readout assays with or without recombinant IL-2, anti-IL-10 plus anti-TGF-β blocking antibodies (100 μg/ml each), or PD-1/PD-L blocking antibodies. Bars show SD for replicate wells in one of four similar experiments; *p<0.01 by ANOVA.
molecule,measurement,setting,value
O=P1(N(CCCl)CCCl)NCCCO1 (centres unmarked) [cyclophosphamide],suppressor activity of TDLN cells after in vivo treatment,"TDLN cells; B78H1-GMCSF tumors treated day 11, CY 150 mg/kg, 1MT pellets, TDLN cells 7 days later, readout BM3 T cells + B6 splenocytes",only slightly
N[C@@H](Cc1c[nH]c2ccccc12)C(=O)O [tryptophan],IDO-induced Treg activation (suppressor activity of re-sorted Tregs in readout assays),Tregs [1],blocked
"Cn1cc(C[C@@H](N)C(=O)O)c2ccccc21 [1MT, 1-methyl-D-tryptophan]",IDO-induced Treg activation (suppressor activity of re-sorted Tregs in readout assays),Tregs [1],no suppressor activity; also recorded: complete abrogation of activation; also recorded: minimal suppression; also recorded: completely abolished
same,Treg activation,Tregs [1]; feeder layer replaced by recombinant cytokines (IFNα + IL-10 + TGF-β1),abrogated
same,CHOP expression in OT-I cells,CHOP,abrogated
same,CHOP induction in Tregs,CHOP; anti-Ia^b 100 ug/ml,prevented
same,cell division of A1 cells (CFSE),Foxp3; CFSE-labeled A1 and OT-I cells,divided
same,upregulation of Foxp3 in A1 cells,"Foxp3; with H-Y peptide, 2 days",prevented
same,activation of host Tregs by DCs from TDLNs,Tregs [2],blocked
same,1B11 activation marker on OT-I in TDLNs,OT-I cells in TDLNs; oral 1MT 2 mg/ml in drinking water,uniformly upregulate
same,cell division of OT-I in TDLNs (CFSE),OT-I cells in TDLNs; oral 1MT,not able to undergo extensive cell division
same,suppression by TDLN cells of untreated control mice,TDLN cells; 1MT added to the readout assays,not affected
same,PD-ligand expression by DCs in readout assays,PD-L1 and PD-L2,low
same,suppressor activity of Tregs in mixed co-cultures,"Tregs [3]; IDO blocked by 1MT, 10-fold more Tregs, absence of anti-CD3 mAb",no spontaneous suppressor activity
same,division of A1CFSE cells in mixed co-cultures,"Tregs [3]; plus 1MT, 2-3 days",able to divide
same,PD-1/PD-L-dependent type of Treg activity in TDLNs,Tregs in TDLNs,none
same,tumor outgrowth,Lewis Lung carcinoma,significantly delayed
same,effect of IDO transfection of P815 on tumor growth in pre-immunized hosts,P815,substantially reversed
B1,suppression of T cell proliferation by IDO-activated Tregs,IDO-activated Tregs,no effect
same,suppression by anti-CD3-activated Tregs,anti-CD3-activated Tregs,fully reversed

# Source: patent publication US20100055111A1, “INDOLEAMINE 2,3-DIOXYGENASE, PD-1/PD-L PATHWAYS, AND CTLA4 PATHWAYS IN THE ACTIVATION OF REGULATORY T CELLS” (Med. College of Georgia Research Institute, Inc., priority 2007, published 2010)
